Our source for the inhibition values is EP0880540B1, “17-BETA-CYCLOPROPYL(AMINO/OXY) 4-AZA STEROIDS AS ACTIVE INHIBITORS OF TESTOSTERONE 5-ALPHA-REDUCTASE AND C17-20-LYASE” (Aventis Pharmaceuticals Inc., priority 1996, dated 1997).

Assay [1] addresses T1, cynomolgus monkey C17,20 lyase (Macaca fascicularis, UniProt Q2XVA1).
T1 construct: microsomal preparations of the enzyme from testicular tissue; from tissue; host or cells: cynomolgus monkey testes, microsomes
T1 sequence (Q2XVA1 1-508): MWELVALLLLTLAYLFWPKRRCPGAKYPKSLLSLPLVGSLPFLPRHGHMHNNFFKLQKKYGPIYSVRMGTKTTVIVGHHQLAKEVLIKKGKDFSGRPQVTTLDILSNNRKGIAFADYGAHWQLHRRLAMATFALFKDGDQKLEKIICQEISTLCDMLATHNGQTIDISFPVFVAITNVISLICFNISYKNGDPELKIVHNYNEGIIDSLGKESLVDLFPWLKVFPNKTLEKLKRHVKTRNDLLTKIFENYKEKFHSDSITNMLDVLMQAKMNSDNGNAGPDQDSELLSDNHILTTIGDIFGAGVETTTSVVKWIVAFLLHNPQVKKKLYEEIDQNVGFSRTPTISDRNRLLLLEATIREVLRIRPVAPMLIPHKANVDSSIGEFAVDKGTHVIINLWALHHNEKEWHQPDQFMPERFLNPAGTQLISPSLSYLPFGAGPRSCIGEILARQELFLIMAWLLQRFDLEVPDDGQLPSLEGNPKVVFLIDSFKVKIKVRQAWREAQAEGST
Briefly: In vitro C17,20 lyase assay, testicular microsomes. In kind it is biochemical. Conditions: mean of duplicates. The protocol: In vitro C17,20 lyase assays: Compounds were tested for inhibition of cynomolgus monkey C17,20 lyase in vitro using microsomal preparations of the enzyme from testicular tissue. Testes were removed from anesthetized animals and flash frozen in liquid nitrogen. Microsomes were isolated as described in Schatzman et al., Anal. Biochem. 175, 219-226 (1988). The compound to be tested was dissolved in dimethyl sulfoxide and diluted in 0.05 M potassium phosphate buffer, pH 7.4, to give the desired concentrations of test compound, in an amount which contributed 0.1% v/v DMSO to the total assay volume. Assays contained 0.05 M potassium phosphate buffer, pH 7.4, an NADPH regenerating system (1 mM NADPH, 5 mM glucose-6-phosphate, 1 IU/mL glucose-6-phosphate dehydrogenase), test compound, substrate and microsomal protein in a total volume of 0.2 mL. Control assays contained all components, including dimethyl sulfoxide, but not test ccmpound. All assays were performed in duplicate. The test compound was incubated with 20 to 62 µg/mL microsomal protein, buffer, and the NADPH regenerating system described above at 34°C for 0 or 40 minutes. Aliquots of 180 µL were then removed and assayed for enzyme activity by addition to 7-[^3H]-17α-hydroxypregnenolone (11.2 mCi/mmole; 0.2 µCi per assay) plus unlabeled 17α-hydroxypregnenolone dissolved in DMSO, contributing 2.5% v/v to the final assay mix, and phosphate buffer to give a total substrate concentration of 0.05 µM (=Km) per assay and subsequent incubation at 34°C for 6 minutes. Each assay was terminated by addition of 5 mL of chloroform:methanol (2:1). Carrier steroids representing substrates and produces (17α-hydroxypregnenolone, dehydroepiandrosterone, and androst-5-ene-3β,17β-diol) and 0.8 mL of distilled, deionized water were also added at this time. The steroids were extracted by the method of Moore and Wilson (Methods in Enzymol., eds. O. Malley, B.W. and Hardman, J.G. 36, 1975, pp. 466-474). The organic phase containing the steroids was evaporated using nitrogen gas, the residues dissolved in 18% tetrahydrofuran (v/v) in hexane, and the steroids were separated by HPLC on a Si60 (5 µm) column (250 x 4 mm) using a gradient of 18-22% tetrahydrofuran (v/v) in hexane. Radioactivity in the steroid peaks was measured using a Radiomatic® Model ES or Model A515 Flo-One® detector.
The enzyme activity for each assay was calculated from the percent conversion of substrate to products, and the results were expressed as percent inhibition of control. The following results were obtained, wherein the values indicated are the mean of duplicate determinations: Table 1: […]

The target in assay [2] is T2, cynomolgus monkey prostatic 5α-reductase (Macaca fascicularis, UniProt Q28892).
T2 construct: microsomal preparations of the 5α-reductase enzyme from laboratory animal prostate tissue; from tissue; host or cells: cynomolgus monkey prostate, microsomes
T2 sequence (Q28892 1-254): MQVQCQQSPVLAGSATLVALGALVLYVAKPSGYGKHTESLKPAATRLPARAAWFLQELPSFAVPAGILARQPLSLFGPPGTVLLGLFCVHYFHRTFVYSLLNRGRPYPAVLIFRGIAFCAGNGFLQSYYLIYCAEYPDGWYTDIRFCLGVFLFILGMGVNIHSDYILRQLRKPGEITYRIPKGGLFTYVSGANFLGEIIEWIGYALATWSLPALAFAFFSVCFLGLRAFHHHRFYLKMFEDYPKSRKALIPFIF
As to the kind of experiment: In vitro 5α-reductase assay, prostate microsomes. Format: biochemical. Conditions: mean of duplicates. Here is the method:
In vitro 5α-reductase assays: The activity of the present compounds as inhibitors of steroid 5α-reductase was determined using microsomal preparations of the 5α-reductase enzyme from laboratory animal prostate tissue. Specifically, microsomes were isolated from cynomolgus monkey prostate tissue. Protein concentration of the microsomal preparations was determined prior to use of the samples. Individual assays of cynomolgus monkey prostatic 5α-reductase activity contained 0.1 M potassium phosphate-sodium citrate buffer, pH 5.6 1.0% (w/v) bovine serum albumin, […] sodium EDTA, 4 µg of microsomal protein, 1.0 mM NADPH, 5.0 mM glucose-6-phosphate, 1 IU/mL glucose-6-phosphate dehydrogenase, [1,2-^3H]-testosterone (0.15 µCi) plus unlabeled testosterone to yield 0.015 µM (Km = 0.015 µM to 0.091 µM in multiple determinations), and test compound which was dissolved in DMSO then diluted in 0.1 M potassium phosphate-sodium citrate buffer, pH 5.6, to yield a final assay concentration of 0.1% (v/v) DMSO. The same buffer and DMSO without test compound were used in control assays. Background radioactivity was determined from assays containing all components except enzyme. Assays were performed in duplicate. Microsomes, 0.1 M potassium phosphate-sodium citrate buffer, pH 5.6, and test compound were preincubated at 37°C. Aliquots of 180 µL were removed after 0 or 40 minutes of preincubation and added to […] of testosterone substrate suspended in 0.1 M potassium phosphate-sodium citrate buffer, pH 5.6, containing 10% (v/v) DMSO. Remaining enzyme activity was assayed for 10 minutes at 37°C in a Dubnoff shaker incubator.
The reactions were terminated by the addition of 5 mL CHCl3:methanol (2:1) and 0.9 mL water. Carrier steroids were added in the form of 2.5 µg each of testosterone, dihydrotestosterone, and 3,17-androstanediol. Steroid metabolites were then extracted according to the procedure of Moore and Wilson (Methods in Enzymol., O'Malley, B.W. and Hardman, J.G. eds., 36, 1975, pp. 466-474), the organic phase containing the steroids was evaporated using nitrogen gas, the residues were dissolved in 3% (v/v) isopropanol in hexane. The steroids were then separated by normal phase HPLC on a LiCrosorb® DIOL derivatized silica gel column (10 µm; 4 x 250 mm) with a 3% to 7.5% isopropanol in hexane gradient, followed by isocratic conditions of […] isopropanol in hexane. Radioactivity in the steroid peaks was measured using a Packard Radiomatic model HS Flo-One detector. When the compound were tested using the above procedures with cynomolgus monkey 5α-reductase, the following results were obtained: Table 2: […]

As for `C[C@]12CC[C@H]3[C@@H](CC=C4NC(=O)CC[C@@]43C)[C@@H]1CC[C@@H]2OC1CC1` (stereo in doubt) [MDL 103,496, 17β-Cyclopropyloxy-4-aza-androst-5-en-3-one], the inhibition at 0.1 µM in assay [1] (preincubation 0 min) was found to be 5%; in assay [1] (preincubation 40 min), 26.6%; in assay [2] (preincubation 0 min) it was 24.6%; in assay [2] (preincubation 40 min), 29.5%. The inhibition at 1 µM is 29% in assay [1] (preincubation 0 min), 62.2% in assay [1] (preincubation 40 min), 86.2% in assay [2] (preincubation 0 min) and 86.7% in assay [2] (preincubation 40 min). Besides, the inhibition at 10 µM in assay [1] (preincubation 0 min) amounted to 39.2%; in assay [1] (preincubation 40 min), 87.7%; in assay [2] (preincubation 0 min), 99.6%; in assay [2] (preincubation 40 min), 99.4%.

As usually defined, the inhibition is the share of the control response that was lost under treatment.
